Assays:
[1] = target: T1, human α1B adrenergic receptor (Homo sapiens, UniProt P35368); assay: Binding at human α1B adrenergic receptor; settings: Table 8; read-out: hα1B Ki
T1 construct: host or cells: LM(tk-) cells, line L-α1B
T1 sequence (P35368 1-520): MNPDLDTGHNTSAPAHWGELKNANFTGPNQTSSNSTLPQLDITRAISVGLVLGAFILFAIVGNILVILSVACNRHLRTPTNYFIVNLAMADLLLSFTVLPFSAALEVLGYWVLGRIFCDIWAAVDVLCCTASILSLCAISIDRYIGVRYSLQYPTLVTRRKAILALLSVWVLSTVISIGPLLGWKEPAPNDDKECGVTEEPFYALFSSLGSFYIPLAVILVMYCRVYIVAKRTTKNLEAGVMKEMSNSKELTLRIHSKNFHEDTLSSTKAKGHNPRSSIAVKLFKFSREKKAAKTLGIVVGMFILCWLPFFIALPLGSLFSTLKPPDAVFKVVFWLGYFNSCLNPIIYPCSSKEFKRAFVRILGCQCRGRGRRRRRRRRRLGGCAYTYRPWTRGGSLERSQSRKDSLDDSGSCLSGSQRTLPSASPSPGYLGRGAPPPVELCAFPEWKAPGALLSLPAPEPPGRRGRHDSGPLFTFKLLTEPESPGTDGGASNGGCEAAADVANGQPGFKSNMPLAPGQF
Text: (§1) α1 Human Adrenergic Receptors: To determine the binding of compounds to human α1 receptors, LM(tk−) cell lines stably transfected with the genes encoding the α1a, α1b, and α1d receptors were used. The nomenclature describing the α1 receptors was changed recently, such that the receptor formerly designated α1a is now designated α1d, and the receptor formerly designated α1c is now designated α1a. The cell lines expressing these receptors were deposited with the ATCC before the nomenclature change and reflect the subtype designations formerly assigned to these receptors. Thus, the cell line expressing the receptor described herein as the α1a receptor was deposited with the ATCC on Sep. […] The cell line expressing receptor described herein as the α1d receptor was deposited with the ATCC on Sep. […] The cell line expressing the α1b receptor is designated L-α1B, and was deposited on Sep.
(§2) The binding affinity (Ki) of these compounds were tested according to the protocols described herein at the following receptors; human α1A, α1B, α1D, α2A, α2B, and α2C adrenergic receptors; human Y1, Y2, Y4, and Y5 receptors; and N-Methyl-D-aspartic acid (NMDA) receptor channels. The binding interactions of these compounds were additionally tested at the norepinephrine (NE) transporter (NE uptake) and serotonin (5-hydroxytryptamine (5HT)) transporter (5HT uptake) according to protocols described herein

[2] = target: T2, human α1A adrenergic receptor (Homo sapiens, UniProt P35348); assay: Binding at human α1A adrenergic receptor; settings: Table 8; read-out: hα1A Ki
T2 construct: host or cells: LM(tk-) cells, line L-α1C
T2 sequence (P35348 1-466): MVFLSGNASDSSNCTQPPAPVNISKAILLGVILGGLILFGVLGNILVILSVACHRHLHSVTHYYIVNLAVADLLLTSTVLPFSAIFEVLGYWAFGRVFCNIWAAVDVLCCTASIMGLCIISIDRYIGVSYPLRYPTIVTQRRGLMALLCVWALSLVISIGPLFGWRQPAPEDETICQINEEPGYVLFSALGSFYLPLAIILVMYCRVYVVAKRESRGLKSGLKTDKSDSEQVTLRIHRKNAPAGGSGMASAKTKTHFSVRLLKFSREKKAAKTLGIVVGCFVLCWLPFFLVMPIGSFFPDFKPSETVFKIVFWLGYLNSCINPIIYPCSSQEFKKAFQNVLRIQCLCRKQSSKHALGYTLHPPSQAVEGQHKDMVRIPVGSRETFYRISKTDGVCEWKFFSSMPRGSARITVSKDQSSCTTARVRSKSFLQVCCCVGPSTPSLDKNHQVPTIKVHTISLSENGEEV
Text: as §1, §2

[3] = target: T3, rat NPFF2 receptor (Rattus norvegicus, UniProt Q9EQD2); assay: Functional assay (agonist potency, intrinsic activity) at cloned rat NPFF2 receptor; format: cell-based; settings: Table 7, intrinsic activity
T3 construct: The full-length NPFF2 was amplified from rat spinal cord cDNA; expressed in transfected cells; host or cells: not given

[4] = target: T4, human α1D adrenergic receptor (Homo sapiens, UniProt P25100); assay: Binding at human α1D adrenergic receptor; settings: Table 8; read-out: hα1D Ki
T4 construct: host or cells: LM(tk-) cells, line L-α1A
T4 sequence (P25100 1-572): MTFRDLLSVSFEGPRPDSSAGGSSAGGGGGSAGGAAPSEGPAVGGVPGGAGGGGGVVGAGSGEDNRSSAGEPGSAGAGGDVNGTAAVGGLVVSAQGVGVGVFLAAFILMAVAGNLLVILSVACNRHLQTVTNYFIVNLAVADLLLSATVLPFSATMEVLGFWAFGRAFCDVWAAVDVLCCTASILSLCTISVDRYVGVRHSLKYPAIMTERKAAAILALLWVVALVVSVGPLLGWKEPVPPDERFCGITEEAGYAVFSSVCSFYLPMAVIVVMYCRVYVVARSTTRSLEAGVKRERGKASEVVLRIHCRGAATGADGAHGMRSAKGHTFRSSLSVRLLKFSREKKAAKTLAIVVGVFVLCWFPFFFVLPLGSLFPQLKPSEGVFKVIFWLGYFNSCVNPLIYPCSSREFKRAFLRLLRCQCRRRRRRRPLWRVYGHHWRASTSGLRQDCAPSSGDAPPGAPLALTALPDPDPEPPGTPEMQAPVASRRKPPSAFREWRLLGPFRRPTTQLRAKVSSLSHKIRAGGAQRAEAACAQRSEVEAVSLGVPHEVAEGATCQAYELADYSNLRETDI
Text: as §1, §2

[5] = target: T5, human Y5 receptor (Homo sapiens, UniProt Q15761); assay: Binding at human neuropeptide Y Y5 receptor; settings: Table 8; read-out: hY5 Ki
T5 construct: host or cells: L cells, line L-hY5-7
T5 sequence (Q15761 1-445): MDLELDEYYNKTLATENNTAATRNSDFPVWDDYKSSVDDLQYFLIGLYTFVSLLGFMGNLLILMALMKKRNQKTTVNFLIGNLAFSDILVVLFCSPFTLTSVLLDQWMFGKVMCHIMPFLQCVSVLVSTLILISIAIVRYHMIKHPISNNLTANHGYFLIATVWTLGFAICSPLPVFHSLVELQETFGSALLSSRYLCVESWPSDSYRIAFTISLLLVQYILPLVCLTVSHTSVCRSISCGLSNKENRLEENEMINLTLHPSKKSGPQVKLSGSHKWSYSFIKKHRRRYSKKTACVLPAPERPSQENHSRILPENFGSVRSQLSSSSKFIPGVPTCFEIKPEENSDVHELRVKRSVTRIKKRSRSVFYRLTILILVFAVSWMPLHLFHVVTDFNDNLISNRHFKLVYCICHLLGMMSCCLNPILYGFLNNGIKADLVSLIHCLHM
Text: (§3) Neuropeptide receptors: Stably transfected cell lines which may be used for binding experiments include, for the Y1 receptor, 293-hY1-5 (deposited Jun. 4, 1996, under ATCC Accession No. CRL-12121); for the Y2 receptor, 293-hY2-10 (deposited Jan. 27, 1994, under ATCC Accession No. CRL-11837); for the Y4 receptor, L-hY4-3 (deposited Jan. 11, 1995, under ATCC Accession No. CRL 11779); and for the Y5 receptor, L-hY5-7 (deposited Nov. 15, 1995, under ATCC Accession No. CRL 11995).
(§4) Binding assays using the NPY receptors may be carried out according to the procedures described in U.S. Pat. No. 5,602,024, the disclosure of which is hereby incorporated by reference in its entirety into this application.
as §2

[6] = target: T6, norepinephrine (NE) transporter (Rattus norvegicus, UniProt Q63380); assay: Binding at native norepinephrine transporter (NE uptake); settings: Table 8
T6 construct: evaluated at native, tissue-derived transporters; from tissue
Protocol: (§5) Transporters: The binding properties of compounds were evaluated at native, tissue-derived transporters, namely serotonin (5HT) transporter and norepinephrine (NE) transporter, according to protocols described in Owens (1997), the disclosure of which is hereby incorporated by reference in its entirety into this application.
as §2

[7] = target: T7, human Y1 receptor (Homo sapiens, UniProt P25929); assay: Binding at human neuropeptide Y Y1 receptor; settings: Table 8; read-out: hY1 Ki
T7 construct: host or cells: 293 cells, line 293-hY1-5
T7 sequence (P25929 1-384): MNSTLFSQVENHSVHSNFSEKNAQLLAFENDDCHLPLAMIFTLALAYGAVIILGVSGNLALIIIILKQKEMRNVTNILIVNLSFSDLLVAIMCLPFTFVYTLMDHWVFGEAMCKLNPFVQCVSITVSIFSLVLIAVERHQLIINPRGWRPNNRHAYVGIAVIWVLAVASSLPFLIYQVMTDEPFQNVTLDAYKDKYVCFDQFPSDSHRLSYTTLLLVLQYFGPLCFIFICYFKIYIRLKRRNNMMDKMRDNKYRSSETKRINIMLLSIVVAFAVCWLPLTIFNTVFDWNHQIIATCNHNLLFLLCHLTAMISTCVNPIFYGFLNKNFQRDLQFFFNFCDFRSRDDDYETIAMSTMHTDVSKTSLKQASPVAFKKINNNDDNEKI
Text: as §3, §4, §2

[8] = target: T8, human Y2 receptor (Homo sapiens, UniProt P49146); assay: Binding at human neuropeptide Y Y2 receptor; settings: Table 8; read-out: hY2 Ki
T8 construct: host or cells: 293 cells, line 293-hY2-10
T8 sequence (P49146 1-381): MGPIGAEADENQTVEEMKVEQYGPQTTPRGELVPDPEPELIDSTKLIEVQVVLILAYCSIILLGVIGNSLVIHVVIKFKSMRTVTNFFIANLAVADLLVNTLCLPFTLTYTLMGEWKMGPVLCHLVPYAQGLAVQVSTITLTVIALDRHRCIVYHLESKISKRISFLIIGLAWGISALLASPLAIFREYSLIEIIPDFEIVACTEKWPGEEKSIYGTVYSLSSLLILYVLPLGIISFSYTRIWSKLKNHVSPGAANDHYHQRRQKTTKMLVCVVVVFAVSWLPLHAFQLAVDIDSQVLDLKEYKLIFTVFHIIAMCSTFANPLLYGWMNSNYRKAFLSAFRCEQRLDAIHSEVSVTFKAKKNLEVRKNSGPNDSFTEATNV
Text: as §3, §4, §2

[9] = target: T9, human Y4 receptor (Homo sapiens, UniProt P50391); assay: Binding at human neuropeptide Y Y4 receptor; settings: Table 8; read-out: hY4 Ki
T9 construct: host or cells: L cells, line L-hY4-3
Text: as §3, §4, §2

[10] = target: T10, serotonin (5HT) transporter (Rattus norvegicus, UniProt P31652); assay: Binding at native serotonin transporter (5HT uptake); settings: Table 8
T10 construct: evaluated at native, tissue-derived transporters; from tissue
Protocol: as §5, §2

T6 sequence (Q63380 1-617): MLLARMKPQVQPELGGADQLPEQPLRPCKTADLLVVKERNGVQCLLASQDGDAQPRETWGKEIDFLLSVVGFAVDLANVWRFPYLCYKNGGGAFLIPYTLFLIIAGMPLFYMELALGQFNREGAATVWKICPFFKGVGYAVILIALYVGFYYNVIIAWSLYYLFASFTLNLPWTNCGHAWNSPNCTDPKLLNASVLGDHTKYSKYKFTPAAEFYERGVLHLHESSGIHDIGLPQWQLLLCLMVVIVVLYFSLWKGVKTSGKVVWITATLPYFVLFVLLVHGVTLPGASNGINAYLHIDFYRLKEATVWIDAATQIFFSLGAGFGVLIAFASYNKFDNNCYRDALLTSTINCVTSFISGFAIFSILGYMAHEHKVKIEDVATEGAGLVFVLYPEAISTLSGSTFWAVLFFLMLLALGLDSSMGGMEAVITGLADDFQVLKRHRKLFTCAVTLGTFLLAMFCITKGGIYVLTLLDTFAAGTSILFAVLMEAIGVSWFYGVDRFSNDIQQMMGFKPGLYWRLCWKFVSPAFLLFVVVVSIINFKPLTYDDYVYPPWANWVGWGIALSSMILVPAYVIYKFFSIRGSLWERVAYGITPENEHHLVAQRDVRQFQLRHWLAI
T3 sequence (Q9EQD2 whole entry): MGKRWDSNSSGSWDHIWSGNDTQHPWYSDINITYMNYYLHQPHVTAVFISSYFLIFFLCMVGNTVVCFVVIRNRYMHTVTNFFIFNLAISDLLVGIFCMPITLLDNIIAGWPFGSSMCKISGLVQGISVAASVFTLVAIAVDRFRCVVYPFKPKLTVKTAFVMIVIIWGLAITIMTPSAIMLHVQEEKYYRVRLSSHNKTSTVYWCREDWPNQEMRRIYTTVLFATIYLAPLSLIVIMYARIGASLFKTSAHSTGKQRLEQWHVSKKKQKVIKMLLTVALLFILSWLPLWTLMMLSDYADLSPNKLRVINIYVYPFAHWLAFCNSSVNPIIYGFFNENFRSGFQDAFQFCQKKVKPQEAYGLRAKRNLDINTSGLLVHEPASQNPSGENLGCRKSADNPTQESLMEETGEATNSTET
T9 sequence (P50391 whole entry): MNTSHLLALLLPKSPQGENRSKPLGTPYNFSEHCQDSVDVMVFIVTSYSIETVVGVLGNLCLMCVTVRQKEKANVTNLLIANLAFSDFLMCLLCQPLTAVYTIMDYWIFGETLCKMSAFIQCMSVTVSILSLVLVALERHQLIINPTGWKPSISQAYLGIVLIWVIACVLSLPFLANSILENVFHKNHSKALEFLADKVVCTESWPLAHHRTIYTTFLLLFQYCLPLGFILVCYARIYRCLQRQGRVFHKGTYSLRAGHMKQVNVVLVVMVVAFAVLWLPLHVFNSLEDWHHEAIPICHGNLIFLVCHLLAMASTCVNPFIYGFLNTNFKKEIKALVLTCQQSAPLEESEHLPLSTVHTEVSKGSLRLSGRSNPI
T10 sequence (P31652 whole entry): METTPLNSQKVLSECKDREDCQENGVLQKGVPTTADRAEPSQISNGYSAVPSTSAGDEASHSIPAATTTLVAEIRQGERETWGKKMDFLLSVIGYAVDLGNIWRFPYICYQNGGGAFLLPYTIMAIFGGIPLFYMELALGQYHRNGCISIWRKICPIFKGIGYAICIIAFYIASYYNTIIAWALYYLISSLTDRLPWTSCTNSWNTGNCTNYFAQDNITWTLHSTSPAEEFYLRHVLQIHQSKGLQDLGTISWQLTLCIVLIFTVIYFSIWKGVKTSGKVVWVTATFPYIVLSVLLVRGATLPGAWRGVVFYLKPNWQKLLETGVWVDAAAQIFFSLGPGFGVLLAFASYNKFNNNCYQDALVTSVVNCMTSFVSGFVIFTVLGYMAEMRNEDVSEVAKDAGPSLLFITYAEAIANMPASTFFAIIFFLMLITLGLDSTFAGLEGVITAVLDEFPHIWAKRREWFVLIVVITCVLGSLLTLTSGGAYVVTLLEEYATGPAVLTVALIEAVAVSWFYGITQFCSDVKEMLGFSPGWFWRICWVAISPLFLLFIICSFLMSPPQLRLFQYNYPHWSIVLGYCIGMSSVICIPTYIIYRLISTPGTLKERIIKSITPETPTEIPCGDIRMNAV

Compound | Ki [1] [µM] | Ki [2] [µM] | rNPFF2 IA [3] [% NPFF] | Ki [4] [µM] | Ki [5] [µM] | Ki [6] [µM] | Ki [7] [µM] | Ki [8] [µM] | Ki [9] [µM] | Ki [10] [µM]
Cc1nc(NC(=N)N)nc2ccccc12 [Compound 1001A, N-(4-methyl-2-quinazolinyl)guanidine] | 9.86 | 5.03 | 16 | 12.9 | – | – | – | – | – | –
Cc1cc(NC(=N)N)nc2ccccc12 [Compound 6001A, N-(4-methyl-2-quinolinyl)guanidine] | – | – | – | – | 0.742 | 12.7 | > 50 | > 50 | 14.3 | 10.5

From patent publication US20030176314A1, “Compounds for the treatment of pain” (priority 2001, published 2003)
